US20030105010A1, “Crystals and structures of ArnB aminotransferases” (priority 2001, published 2003)

How the values were obtained:
[1] = target: T1, Salmonella typhimurium ArnB (Salmonella typhimurium, UniProt Q8ZNF3); experiment: ArnB aminotransfer half-reaction assay (absorbance of PMP/PLP cofactor forms at 340 nm / 430 nm); assay type: biochemical; conditions: for conversion of ArnB from the E-PLP form back to the E•PMP form by amino donor: excess amino acid, decrease at 430 nm and increase at 340 nm; for observed rate constant of aminotransfer from L-methionine to E-PLP ArnB: enzyme concentration 23 μM, L-methionine concentration 20 mM
T1 construct: made in house; host or cells: E. coli BL21 (DE3), vector pSB3 (modified pET26b)
T1 sequence (Q8ZNF3 whole entry): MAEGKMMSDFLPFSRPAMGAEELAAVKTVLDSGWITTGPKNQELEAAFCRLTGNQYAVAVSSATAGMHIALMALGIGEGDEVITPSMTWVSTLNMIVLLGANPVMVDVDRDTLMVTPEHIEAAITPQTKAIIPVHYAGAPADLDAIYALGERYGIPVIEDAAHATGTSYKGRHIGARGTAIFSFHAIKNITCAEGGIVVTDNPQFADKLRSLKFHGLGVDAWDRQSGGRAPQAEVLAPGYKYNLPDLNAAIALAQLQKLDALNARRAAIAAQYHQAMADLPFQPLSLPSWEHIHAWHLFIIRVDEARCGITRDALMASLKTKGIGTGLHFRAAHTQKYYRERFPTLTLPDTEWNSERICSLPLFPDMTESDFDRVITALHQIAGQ
Procedure: Aminotransfer half-reactions were measured at an enzyme concentration of 23 μM and substrates were added to a final concentration of 250 μM, unless otherwise indicated. Reaction progress was followed by moniotoring the absorbance maxima of the PMP or PLP cofactor forms at 340 nm or 430 nm, respectively. Resulting time courses were fit to eq. 1, describing a single-exponential decay,
Yobs=((Y0−Y∞)e^−kt)+Y∞ (Eq. 1),
where Yobs=observed signal, Y0=signal at time zero, Y∞=signal at infinite time, k is the apparent first-order rate constant, and t is time. Nonlinear least-squares fits were performed with Kaleidagraph v3.51 (Synergy Software, Reading, Pa.).

[2] = target: T1, Salmonella typhimurium ArnB; experiment: L-cycloserine inhibition of ArnB followed by cofactor absorbance spectrum; assay type: biochemical
ArnB from E. coli K12 = ArnB from E. coli K12 (Escherichia coli, UniProt P77690); conditions: compared with L-glutamate; cited from earlier work
ArnB from E. coli K12, sequence (P77690 whole entry): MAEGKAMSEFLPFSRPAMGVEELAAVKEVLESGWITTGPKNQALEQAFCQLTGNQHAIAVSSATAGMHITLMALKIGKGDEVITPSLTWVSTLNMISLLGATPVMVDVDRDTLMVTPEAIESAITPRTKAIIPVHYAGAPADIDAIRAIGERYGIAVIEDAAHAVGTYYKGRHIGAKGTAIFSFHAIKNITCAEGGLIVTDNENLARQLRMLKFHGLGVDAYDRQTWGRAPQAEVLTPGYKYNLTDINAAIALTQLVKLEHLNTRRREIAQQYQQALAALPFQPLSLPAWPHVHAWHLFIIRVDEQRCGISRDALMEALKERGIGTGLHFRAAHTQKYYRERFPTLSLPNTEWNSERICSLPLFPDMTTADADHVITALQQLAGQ

CSCC[C@@H](N)C(=O)O (single isomer, unassigned) [D-isomer of methionine]
conversion of ArnB from the E-PLP form back to the E•PMP form by amino donor [1]: no such effect

N[C@@H](CC(=O)O)C(=O)O (single isomer, unassigned) [L-isomer of aspartic acid]
conversion of ArnB from the E-PLP form back to the E•PMP form by amino donor [1]: slower rate than L-methionine

N[C@H]1CONC1=O [L-cycloserine]
reaction with ArnB in the E-PMP form ([2]; E-PMP enzyme form): did not react | inactivation of E-PLP ArnB ([2]; excess L-cycloserine, loss of 430 nm internal aldimine peak, appearance of peak centered at 334 nm): rapidly inactivated

N[C@@H](CCC(=O)O)C(=O)O [L-glutamate]
conversion of ArnB from the E-PLP form back to the E•PMP form by amino donor [1]: fastest L-amino acid tested

NC(=O)CC[C@H](N)C(=O)O [L-glutamine]
use as amino donor substrate (ArnB from E. coli K12): less efficiently than with L-glutamate

CSCC[C@H](N)C(=O)O [L-methionine]
conversion of ArnB from the E-PLP form back to the E•PMP form by amino donor [1]: readily converted | observed rate constant of aminotransfer from L-methionine to E-PLP ArnB ([1]; measured at 340 nm): 0.065 ± 0.014 min⁻¹ | observed rate constant of aminotransfer from L-methionine to E-PLP ArnB ([1]; measured at 430 nm): 0.051 ± 0.013 min⁻¹

O=C(O)CCCC(=O)C(=O)O [α-Ketoadipate]
reduction in aminotransfer rate from that of α-ketoglutarate ([1]; E•PMP to E-PLP conversion, absorbance increase at 430 nm, α-ketoacid as amino acceptor substrate): 3 fold
